According to publication PMC2424174, “Suppression of Tumor Growth and Angiogenesis by a Specific Antagonist of the Cell-Surface Expressed Nucleolin” (PLoS ONE, 2008):

Legend:
[1] = system: MDA-MB-231 cells; assay: HB-19 entry in MDA-MB-231 cells, immunofluorescence; assay type: cell-based, human; settings: 5 µM HB-19/Btn, 1 hour
[2] = system: nucleolin; settings: cited from earlier work
Excerpt: HB-19 presents pentavalently the tripeptide Kψ(CH2N)PR in which the reduced peptide bond provides high stability against serum proteases (Figure 1). HB-19 forms a stable complex with the cell-surface expressed nucleolin and is internalized by an active process. This le ... || The interaction of HB-19 with surface nucleolin was investigated using human breast cancer MDA-MB-231 tumor cells and human umbilical vein endothelial cells (HUVECs). […] Similarly, HB-19/Btn binds and forms a stable complex with surface nucleolin in a dose-dependent manner in both types of cell ... || Previously, guanosine-rich phosphodiester oligonucleotides (referred to as GROs) and endostatin have been reported to exert antitumoral and antiangiogenic activity, respectively, through interaction with surface nucleolin [21], [41], [42]. […] At 20°C, GRO ... || (+ 1 further places)

[3] = system: Aortic endothelial (ABAE) cells; assay: Tubular network structure formation in collagen gel; assay type: cell-based, bovine
Experimental: Figure 6 Inhibition of in vitro and in vivo angiogenesis by HB-19. (A) HB-19 inhibits proliferation of HUVECs. Twenty-four hours after seeding HUVECs in 2% FBS, cells were stimulated by 0.25 nM VEGF165, in the absence or presence of 1 µM HB-19 or 0.1 µM anti-nucleolin mAb MS-3 as indicated. After 72 h, cell number was determined by crystal violet staining. The data are reported as the mean of triplicate samples. (B) HB-19 inhibits migration of HUVECs. Cell migration was studied using a modified Boyden chamber. Cells were incubated (4 h at 37°C) with VEGF165, HB-19, or anti-nucleolin mAb MS-3 as above. Cells that migrated through the pore to the lower filter surface were counted and are shown as number per microscopic field at ×100 magnification. The data are the mean of three independent high-power fields/well performed in duplicate in two independent experiments. […] Aortic endothelial (ABAE) cells in the absence or presence of 3 nM PTN, 0.5 nM VEGF165, and 3 nM FGF-2 were seeded on a three-dimensional collagen gel in complete medium. Treatment with HB-19 or anti-nucleolin mAb MS-3 was for 3 days after cell plating. Tubular network structures were quantified using phase contrast microscopy (×100). The ordinate gives the number of pseudocapillaries corresponding to the means of three randomly chosen fields/well from three wells. (D) HB-19 inhibits […] angiogenic activity of growth factors in a Matrigel plug model. Liquid Matrigel was subcutaneously injected into the flank of Swiss mice in the absence or presence of 5 nM PTN, 10 nM FGF-2, and 1 µM HB-19. Quantification of endothelial cell invasion into the Matrigel was determined and is expressed as a mean of five fields per section from 3 Matrigel-plug sections per mouse. The results are expressed as the mean of five mice per group. Statistical significance: *p<0.05, **p<0.01, ***p<0.001.
Three-dimensional collagen gels were prepared following the procedure of Montesano with minor modifications. […] Tubular network structures were then quantified using phase contrast microscopy at 100× magnification. […]

pseudo-tripeptide Lysψ(CH2N)-Pro-Arg coupled to a template (H2NLys-Lys-Lys-Gly-Pro-Lys-Glu-Lys-AhxCONH2) [HB-19, pseudopeptide presenting pentavalently the pseudo-tripeptide Lysψ(CH2N)-Pro-Arg coupled to a template]
internalization and subcellular localization ([1]; 37°C): internalized and is concentrated in the cytoplasm without translocation into the nucleus | internalization at 20°C ([1]; 20°C): remains attached to the cell surface without entering the cytoplasm | binding site on nucleolin [2]: binds the C-terminal RGG domain of cell-surface expressed nucleolin | heparan sulfate proteoglycan requirement of binding to surface nucleolin [2]: endostatin but not HB-19 binding to surface nucleolin requires heparan sulfate proteoglycans | reversibility of binding to surface nucleolin ([2]; physiological conditions): bind surface nucleolin in an irreversible manner | capillary-like structure formation, VEGF induced ([3]; 0.5 nM VEGF165, treatment 3 days): inhibited formation of capillary-like branched structures | tubular network formation, FGF-2 induced ([3]; 3 nM FGF-2, treatment 3 days): inhibits tubular network structure formation in collagen | capillary-like structure formation, PTN induced ([3]; 3 nM PTN, treatment 3 days): inhibited formation of capillary-like branched structures
